Data reported in patent US6632449B2, “Compositions and kits comprising a defined boron compound and methods of their preparation” (The Procter & Gamble Co., priority 2001, dated 2003).

Assay: physchem
Conditions: saturated aqueous solution of the boron compound
Text: The pKa of the boron compound utilized herein may be determined as follows. […] Using an auto titrator, titrate the solution according to standard methods. The pKa of the boron compound is the pH at which the inflection point occurs in the resulting titration curve.

pKa: ~9.2
Structure (SMILES): OB(O)O [boric acid]
